# Results taken from PMC3341351, “Down-Regulation of GABAA Receptor via Promiscuity with the Vasoactive Peptide Urotensin II Receptor. Potential Involvement in Astrocyte Plasticity” (PLoS ONE, 2012).
# Key:
# [1] = tested on: GABAAR in astrocytes (mono-culture); experiment: Patch-clamp responsiveness of astrocytes in mono-culture to isoguvacine; type: cell-based, rat; conditions: Iso 10^−4 M; n = 31
# Description: Primary cultures of astrocytes were prepared as previously described. Briefly, cerebellum from 7-day-old (P7) Wistar rats were collected in DMEM/Ham-F12 (2∶1, v/v) culture medium supplemented with 2 mM glutamine, 1% insulin, 5 mM HEPES, 0.4% D(+)-glucose and 1% of the antibiotic-antimycotic solution. The tissues were disaggregated mechanically with a syringue equipped with a 1-mm gauge needle, and filtered through a 100-µm pore size mesh filter (Falcon, Becton Dickinson, Grenoble, France). Dissociated cells were resuspended in culture medium supplemented with 10% heat-inactivated FBS and seeded in 150-cm^2 culture flasks (Falcon) at a density of 20×10^6 cells/flask. Cells were incubated at 37°C in a humidified atmosphere (5% CO2) and the medium was changed twice a week. When cultures were confluent, the flasks were gently shaken on an orbital shaker at […] for 2 h. Dislodged cells were discarded and a second step of purification was performed at […] for 14–16 h. Remaining adhesive cells were collected by trypsination, centrifuged (800 g, 10 min) and plated in 150-cm^2 flasks. Suspended astrocytes were harvested and seeded in 24-well poly-L-lysine-coated plates. The purity of the cultures was previously assessed by counting the percentage of astrocytes immunostained with GFAP antibodies. The enriched cultures contained >99% astrocytes. […]
# UT in human U87 glioma = experiment: Cell surface ELISA of UT in U87 glioma; type: cell-based; conditions: hUII 10^−8 M, 30 min, absence or presence of the UT C-terminus
# Description: The human cell line from glioblastoma U87 was obtained from the American Type Culture Collection (LGC Standards, Molsheim, France). U87 cells were maintained in DMEM containing 10% FBS and 1% sodium pyruvate. NHA-Astrocytes (Lonza, Walkersville, MD, USA) were cultivated in DMEM culture medium supplemented with 2 mM glutamine, 5 mM HEPES, 1% non essential amino acids, 1% sodium pyruvate, B27, 25 ng/ml EGF, 1% of the antibiotic-antimycotic solution and 10% FBS. All cells were incubated at 37°C in a humidified atmosphere containing 5% CO2. Culture media were replaced every three days.
# Cells were plated at 50 000 cells/well in 96-well plates coated with 0.1 mg/ml poly-L-ornithine (Sigma-Aldrich). […] Cells were fixed with 4% PFA in PBS for 5 min at RT, washed in PBS, and then permeabilized in 0.05% triton X100 (only for permeabilized cells) and non specific binding were blocked with PBS containing 1% FBS for 30 min at RT. […] The cells were washed four times with PBS, a colorimetric alkaline phosphatase substrate was added (SuperSignal ELISA, Thermo scientific, Fisher) and the resulting color reaction was measured using a Viktor multilabel plate reader (PerkinElmer, Courtaboeuf, France). Background absorbance from samples transfected with non-tagged receptors or from cells without first antibodies were systematically measured. […]
# [2] = tested on: cultured rat cortical astrocytes; design: method as in PMID 16942596, PMID 20192922; conditions: ref [41], [42]; cited from earlier work
molecule,measurement,setting,value
"O=C(O)C1=CCNCC1 [Iso, isoguvacine]","Cells responding to isoguvacine, astrocytes in mono-culture",[1],12%
"ETPDCFWKYCV (disulfide) [hUII, human urotensin II, synthesized by solid phase methodology]","UT levels at the cell surface, U87",UT in human U87 glioma,remained unchanged
"UII: Urotensin II, species not stated at that place (rUII in astrocytes, hUII in CHO and human cells)",Effect on cell proliferation,[2],stimulates cell proliferation
